The target of assay [1] is T1, HiBiT-BRM fusion protein in stable HeLa cell line (Homo sapiens, UniProt P51531).
T1 construct: expressed in transfected cells
Kind of assay: HiBiT-BRM cell-based degradation assay (Nano-Glo HiBiT Lytic Detection, 24 h). Set-up: DC50: scale not given here. Particulars: HeLa HiBiT-BRM cells; for DC50: read-out: BRM HiBit Degradation IC50; for BRM HiBit Degradation Maximum (%): top dose 30 μM. The method, boiled down: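 Stable HiBiT-BRM HeLa cells treated 24 h with 10-point 3-fold dilutions, top final dose 30 μM, in duplicate. Luminescence read after lytic LgBiT reagent. Percent degradation was normalised to DMSO (high control) and 2 μM reference BRM/BRG1 degrader (low control).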

In assay [2] the target is T2, HiBit-BRG1 fusion protein in stable HeLa cell line expressing HiBit-BRG1 and LgBit (Homo sapiens, UniProt P51532).
T2 construct: expressed in transfected cells
T2 sequence (P51532 whole entry, the tested form may be a part): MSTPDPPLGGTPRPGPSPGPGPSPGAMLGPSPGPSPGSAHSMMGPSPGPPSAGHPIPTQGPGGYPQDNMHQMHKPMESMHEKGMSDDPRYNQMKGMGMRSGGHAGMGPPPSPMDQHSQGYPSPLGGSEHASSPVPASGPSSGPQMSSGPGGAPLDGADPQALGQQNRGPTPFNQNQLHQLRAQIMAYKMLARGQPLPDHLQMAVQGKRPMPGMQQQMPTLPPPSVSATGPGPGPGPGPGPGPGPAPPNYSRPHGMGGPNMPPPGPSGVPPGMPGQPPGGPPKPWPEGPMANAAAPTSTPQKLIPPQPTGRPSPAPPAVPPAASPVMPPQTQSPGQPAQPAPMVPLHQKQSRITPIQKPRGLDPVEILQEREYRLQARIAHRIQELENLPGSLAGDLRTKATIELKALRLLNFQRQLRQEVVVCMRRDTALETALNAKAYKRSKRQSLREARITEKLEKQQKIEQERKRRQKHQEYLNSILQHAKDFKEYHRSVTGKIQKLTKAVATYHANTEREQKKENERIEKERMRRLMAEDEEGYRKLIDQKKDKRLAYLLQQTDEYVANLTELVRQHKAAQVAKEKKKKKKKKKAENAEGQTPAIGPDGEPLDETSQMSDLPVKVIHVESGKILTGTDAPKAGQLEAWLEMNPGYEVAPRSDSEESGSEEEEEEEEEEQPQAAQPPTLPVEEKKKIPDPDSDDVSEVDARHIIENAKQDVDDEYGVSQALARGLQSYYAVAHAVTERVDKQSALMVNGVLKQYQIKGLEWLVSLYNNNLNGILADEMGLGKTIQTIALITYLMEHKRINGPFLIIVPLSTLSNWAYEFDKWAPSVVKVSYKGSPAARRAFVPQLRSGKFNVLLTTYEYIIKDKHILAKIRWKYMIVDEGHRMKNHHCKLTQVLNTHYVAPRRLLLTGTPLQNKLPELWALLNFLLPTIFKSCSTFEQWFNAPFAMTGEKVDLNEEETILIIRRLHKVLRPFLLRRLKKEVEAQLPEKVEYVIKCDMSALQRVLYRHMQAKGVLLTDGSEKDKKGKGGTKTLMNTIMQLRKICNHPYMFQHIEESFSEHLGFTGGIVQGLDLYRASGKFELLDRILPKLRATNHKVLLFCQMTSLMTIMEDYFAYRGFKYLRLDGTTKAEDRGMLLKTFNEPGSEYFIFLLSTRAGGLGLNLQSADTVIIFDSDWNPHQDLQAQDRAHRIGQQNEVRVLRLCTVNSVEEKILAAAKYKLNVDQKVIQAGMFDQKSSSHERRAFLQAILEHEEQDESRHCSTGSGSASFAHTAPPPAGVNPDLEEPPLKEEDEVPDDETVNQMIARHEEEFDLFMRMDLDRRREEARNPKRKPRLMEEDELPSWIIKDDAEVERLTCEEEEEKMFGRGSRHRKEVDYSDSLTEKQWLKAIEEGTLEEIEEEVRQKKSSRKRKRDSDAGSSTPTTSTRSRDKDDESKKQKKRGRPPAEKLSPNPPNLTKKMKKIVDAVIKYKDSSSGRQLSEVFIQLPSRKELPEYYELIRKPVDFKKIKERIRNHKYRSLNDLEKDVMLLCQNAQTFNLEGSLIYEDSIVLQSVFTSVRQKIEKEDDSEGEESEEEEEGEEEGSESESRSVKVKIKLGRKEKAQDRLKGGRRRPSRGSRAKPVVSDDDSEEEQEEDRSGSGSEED
Kind of assay: HiBiT-BRG1 cell-based degradation assay (Nano-Glo HiBiT, 24 h). Particulars: HeLa HiBit-BRG1/LgBit cells; for Dmax: top dose 30 μM, read-out: BRG1 HiBit Degradation Maximum (%); for DC50: read-out: BRMG1 HiBit Degradation IC50. An outline of the steps: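 Stable HeLa line co-expressing HiBiT-BRG1 and LgBiT, compound-treated 24 h; luminescence read after Nano-Glo HiBiT lytic reagent. % degradation normalised between DMSO (high control) and 2 μM reference BRM/BRG1 degrader (low control).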
In general terms: With HiBiT, luminescence reflects the tagged protein that the partner subunit can reach.

T1 sequence (P51531 whole entry, the tested form may be a part): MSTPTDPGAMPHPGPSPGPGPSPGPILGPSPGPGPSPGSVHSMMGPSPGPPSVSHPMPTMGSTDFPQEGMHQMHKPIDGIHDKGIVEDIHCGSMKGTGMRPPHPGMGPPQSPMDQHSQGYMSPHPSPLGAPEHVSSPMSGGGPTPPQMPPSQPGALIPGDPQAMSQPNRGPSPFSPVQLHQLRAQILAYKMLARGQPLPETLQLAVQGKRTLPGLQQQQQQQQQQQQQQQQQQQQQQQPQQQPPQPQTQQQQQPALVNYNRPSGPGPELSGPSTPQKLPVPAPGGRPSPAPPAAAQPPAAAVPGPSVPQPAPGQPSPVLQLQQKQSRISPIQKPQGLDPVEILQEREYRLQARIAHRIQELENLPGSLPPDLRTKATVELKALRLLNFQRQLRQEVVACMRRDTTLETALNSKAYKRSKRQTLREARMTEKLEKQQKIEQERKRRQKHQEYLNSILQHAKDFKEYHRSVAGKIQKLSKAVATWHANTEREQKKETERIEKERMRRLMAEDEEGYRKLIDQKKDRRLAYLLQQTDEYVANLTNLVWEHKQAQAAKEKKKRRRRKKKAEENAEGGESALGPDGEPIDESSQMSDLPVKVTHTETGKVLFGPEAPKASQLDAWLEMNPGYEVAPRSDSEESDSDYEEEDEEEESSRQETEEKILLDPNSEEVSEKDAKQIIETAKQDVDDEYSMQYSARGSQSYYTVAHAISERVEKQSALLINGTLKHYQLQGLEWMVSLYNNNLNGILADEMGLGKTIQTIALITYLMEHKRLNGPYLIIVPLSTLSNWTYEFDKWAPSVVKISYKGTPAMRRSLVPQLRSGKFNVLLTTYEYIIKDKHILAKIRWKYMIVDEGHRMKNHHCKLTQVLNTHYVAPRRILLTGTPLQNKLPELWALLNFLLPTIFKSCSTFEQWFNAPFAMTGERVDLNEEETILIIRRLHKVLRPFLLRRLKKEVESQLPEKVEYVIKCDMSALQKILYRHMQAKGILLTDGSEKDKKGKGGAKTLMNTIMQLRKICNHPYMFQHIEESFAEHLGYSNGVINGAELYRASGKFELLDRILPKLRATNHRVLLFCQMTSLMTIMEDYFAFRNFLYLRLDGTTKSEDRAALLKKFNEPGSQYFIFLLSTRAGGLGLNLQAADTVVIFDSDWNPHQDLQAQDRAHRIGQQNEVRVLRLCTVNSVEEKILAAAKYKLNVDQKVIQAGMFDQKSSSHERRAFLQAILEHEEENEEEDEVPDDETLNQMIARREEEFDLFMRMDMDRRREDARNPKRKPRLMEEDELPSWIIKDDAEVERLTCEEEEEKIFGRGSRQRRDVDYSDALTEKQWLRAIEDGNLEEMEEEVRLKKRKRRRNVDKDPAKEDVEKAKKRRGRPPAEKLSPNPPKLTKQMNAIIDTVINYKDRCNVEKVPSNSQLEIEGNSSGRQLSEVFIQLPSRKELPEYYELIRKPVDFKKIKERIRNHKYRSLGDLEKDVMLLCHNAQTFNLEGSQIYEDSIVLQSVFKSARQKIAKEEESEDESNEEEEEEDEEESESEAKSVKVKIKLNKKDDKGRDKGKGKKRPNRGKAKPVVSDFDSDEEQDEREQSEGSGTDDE

As for `Cc1ncsc1-c1ccc([C@H](C)NC(=O)[C@@H]2C[C@@H](O)CN2C(=O)C(C(C)C)n2cc(N3C[C@H]4CN(c5ccc6cc(-c7ccccc7O)nnc6c5)C[C@H]4C3)nn2)cc1` (stereo partly drawn) [Compound 213, (2S,4R)-4-hydroxy-1-(2-(4-((3aR,6aS)-5-(3-(2-hydroxyphenyl)cinnolin-7-yl)hexahydropyrrolo[3,4-c]pyrrol-2(1H)-yl)-1H-1,2,3-triazol-1-yl)-3-methylbutanoyl)-N-((S)-1-(4-(4-methylthiazol-5-yl)phenyl)ethyl)pyrrolidine-2-carboxamide], in assay [1], the DC50 was less than 10 nM and the “BRM HiBit Degradation Maximum (%)” value was “A (“A” indicates maximum degradation ≥75%)”. The Dmax in assay [2] is less than 50%.

As to `Cc1ncsc1-c1ccc([C@H](C)NC(=O)[C@@H]2C[C@@H](O)CN2C(=O)[C@H](C(C)C)n2cc(N3CCN4CCN(c5ccc6nnc(-c7ccccc7O)cc6c5)CC4C3)nn2)cc1` (stereo partly shown) [Compound 214], in assay [1], the DC50 was less than 10 nM and the “BRM HiBit Degradation Maximum (%)” value was “A (“A” indicates maximum degradation ≥75%)”. The Dmax in assay [2] was greater than 50%.

On to `CC(C)[C@@H](C(=O)N1C[C@H](O)C[C@H]1C(=O)N[C@@H](C)c1ccc(F)cc1)c1cc(N2CC3(C2)CN(c2cc4nnc(-c5ccccc5O)cc4cc2C#N)C3)no1` [Compound 217, (2S,4R)-1-((R)-2-(3-(6-(6-cyano-3-(2-hydroxyphenyl)cinnolin-7-yl)-2,6-diazaspiro[3.3]heptan-2-yl)isoxazol-5-yl)-3-methylbutanoyl)-N-((S)-1-(4-fluorophenyl)ethyl)-4-hydroxypyrrolidine-2-carboxamide], for which, in assay [1], the DC50 was less than 10 nM and the “BRM HiBit Degradation Maximum (%)” value is “A (“A” indicates maximum degradation ≥75%)”. Further, the Dmax in assay [2] is less than 50%.

With `COc1cc2cc(-c3ccccc3O)nnc2cc1CN1CC[C@@H](N2CCN(c3cc([C@H](C(=O)N4C[C@H](O)C[C@H]4C(=O)N[C@@H](C)c4ccc(-c5scnc5C)cc4)C(C)C)on3)CC2)C(F)(F)C1` [Compound 218, (2S,4R)-1-[(2R)-2-(3-{4-[(4R)-3,3-difluoro-1-{[3-(2-hydroxyphenyl)-6-methoxycinnolin-7-yl]methyl}piperidin-4-yl]piperazin-1-yl}-1,2-oxazol-5-yl)-3-methylbutanoyl]-4-hydroxy-N-[(1S)-1-[4-(4-methyl-1,3-thiazol-5-yl)phenyl]ethyl]pyrrolidine-2-carboxamide], in assay [1], the DC50 was less than 10 nM and the “BRM HiBit Degradation Maximum (%)” value is listed as “A (“A” indicates maximum degradation ≥75%)”. In addition, in assay [2], the DC50 was greater than 10 nM and the Dmax is greater than 75%.

As for `COc1cc2cc(-c3ccccc3O)nnc2cc1CN1CC[C@H](N2CCN(c3cc([C@H](C(=O)N4C[C@H](O)C[C@H]4C(=O)N[C@@H](C)c4ccc(-c5scnc5C)cc4)C(C)C)on3)CC2)C(F)(F)C1` [Compound 219, (2S,4R)-1-((R)-2-(3-(4-((S)-3,3-difluoro-1-((3-(2-hydroxyphenyl)-6-methoxycinnolin-7-yl)methyl)piperidin-4-yl)piperazin-1-yl)isoxazol-5-yl)-3-methylbutanoyl)-4-hydroxy-N-((S)-1-(4-(4-methylthiazol-5-yl)phenyl)ethyl)pyrrolidine-2-carboxamide], in assay [1], the DC50 was less than 10 nM and the “BRM HiBit Degradation Maximum (%)” value is given as “A (“A” indicates maximum degradation ≥75%)”. In addition, in assay [2], the DC50 is greater than 10 nM and the Dmax was greater than 75%.

Turning to `Cc1ncsc1-c1ccc([C@H](C)NC(=O)[C@@H]2C[C@@H](O)CN2C(=O)[C@@H](c2cc(N3CC4(CC(c5cc6nnc(-c7ccccc7O)cc6cc5Cl)C4)C3)no2)C(C)C)cc1` [Compound 220, (2S,4R)-1-((R)-2-(3-(6-(6-chloro-3-(2-hydroxyphenyl)cinnolin-7-yl)-2-azaspiro[3.3]heptan-2-yl)isoxazol-5-yl)-3-methylbutanoyl)-4-hydroxy-N-((S)-1-(4-(4-methylthiazol-5-yl)phenyl)ethyl)pyrrolidine-2-carboxamide], in assay [1], the DC50 was less than 10 nM and the “BRM HiBit Degradation Maximum (%)” value is recorded as “A (“A” indicates maximum degradation ≥75%)”. Besides, in assay [2], the DC50 is greater than 10 nM and the Dmax is greater than 75%.

On to `Cc1ncsc1-c1ccc([C@H](C)NC(=O)[C@@H]2C[C@@H](O)CN2C(=O)[C@@H](c2cc(N3CC4(CC(c5cc6nnc(-c7ccccc7O)cc6cc5C#N)C4)C3)no2)C(C)C)cc1` [Compound 222, (2S,4R)-1-((R)-2-(3-(6-(6-cyano-3-(2-hydroxyphenyl)cinnolin-7-yl)-2-azaspiro[3.3]heptan-2-yl)isoxazol-5-yl)-3-methylbutanoyl)-4-hydroxy-N-((S)-1-(4-(4-methylthiazol-5-yl)phenyl)ethyl)pyrrolidine-2-carboxamide], for which, in assay [1], the DC50 was less than 10 nM and the “BRM HiBit Degradation Maximum (%)” value was “A (“A” indicates maximum degradation ≥75%)”. For the same compound, the Dmax in assay [2] is less than 50%.

In the case of `C#Cc1ccc(CNC(=O)[C@@H]2C[C@@H](O)CN2C(=O)[C@H](C(C)C)n2cc(N3CC4(CN(c5ccc6cc(-c7ccccc7O)nnc6c5)C4)C3)nn2)c(Cl)c1` [Compound 223, (2S,4R)—N-[(2-chloro-4-ethynylphenyl)methyl]-4-hydroxy-1-[(2S)-2-(4-{6-[3-(2-hydroxyphenyl)cinnolin-7-yl]-2,6-diazaspiro[3.3]heptan-2-yl}-1,2,3-triazol-1-yl)-3-methylbutanoyl]pyrrolidine-2-carboxamide], in assay [1], the DC50 is less than 10 nM and the “BRM HiBit Degradation Maximum (%)” value is “A (“A” indicates maximum degradation ≥75%)”. Also, the Dmax in assay [2] is greater than 50%.

Take `Cc1ncsc1-c1ccc([C@H](C)NC(=O)[C@H]2C[C@H](O)CN2C(=O)C(c2cc(N3C[C@@H]4C[C@H]3CN4c3ccc4cc(-c5ccccc5O)nnc4c3)no2)C(C)C)cc1` (stereo partly drawn) [Compound 224, (2R,4S)-4-hydroxy-1-(2-(3-((1S,4S)-5-(3-(2-hydroxyphenyl)cinnolin-7-yl)-2,5-diazabicyclo[2.2.1]heptan-2-yl)isoxazol-5-yl)-3-methylbutanoyl)-N-((S)-1-(4-(4-methylthiazol-5-yl)phenyl)ethyl)pyrrolidine-2-carboxamide]: in assay [1], the DC50 is less than 10 nM and the “BRM HiBit Degradation Maximum (%)” value is reported as “A (“A” indicates maximum degradation ≥75%)”. Moreover, in assay [2], the DC50 is greater than 10 nM and the Dmax is greater than 75%.

Regarding `Cc1ncsc1-c1ccc([C@H](C)NC(=O)[C@@H]2C[C@@H](O)CN2C(=O)C(c2cc(N3CCC(C4CN(c5ccc6cc(-c7ccccc7O)nnc6c5)C4)CC3)no2)C(C)C)cc1` (stereo partly drawn) [Compound 225, (2S,4R)-4-hydroxy-1-(2-(3-(4-(1-(3-(2-hydroxyphenyl)cinnolin-7-yl)azetidin-3-yl)piperidin-1-yl)isoxazol-5-yl)-3-methylbutanoyl)-N-((S)-1-(4-(4-methylthiazol-5-yl)phenyl)ethyl)pyrrolidine-2-carboxamide], in assay [1], the DC50 is less than 10 nM and the “BRM HiBit Degradation Maximum (%)” value is recorded as “A (“A” indicates maximum degradation ≥75%)”. In assay [2], the DC50 was greater than 10 nM and the Dmax is greater than 75%.

In the case of `Cc1ncsc1-c1ccc([C@H](C)NC(=O)[C@@H]2C[C@@H](O)CN2C(=O)C(c2cc(N3C[C@@H]4CN(c5ccc6cc(-c7ccccc7O)nnc6c5)C[C@H]4C3)no2)C(C)C)cc1` (stereo partly drawn) [Compound 226, (2S,4R)-4-hydroxy-1-(2-(3-((3aS,6aS)-5-(3-(2-hydroxyphenyl)cinnolin-7-yl)hexahydropyrrolo[3,4-c]pyrrol-2(1H)-yl)isoxazol-5-yl)-3-methylbutanoyl)-N-((S)-1-(4-(4-methylthiazol-5-yl)phenyl)ethyl)pyrrolidine-2-carboxamide], in assay [1], the DC50 is greater than 10 nM and the “BRM HiBit Degradation Maximum (%)” value was “A (“A” indicates maximum degradation ≥75%)”. Also, the Dmax in assay [2] was less than 50%.

With `CC(C)[C@@H](C(=O)N1C[C@H](O)C[C@H]1C(=O)N[C@@H](C)c1ccc(F)cc1)c1cc(N2CC3(CC(c4cc5nnc(-c6ccccc6O)cc5cc4C#N)C3)C2)no1` [Compound 227, (2S,4R)-1-((R)-2-(3-(6-(6-cyano-3-(2-hydroxyphenyl)cinnolin-7-yl)-2-azaspiro[3.3]heptan-2-yl)isoxazol-5-yl)-3-methylbutanoyl)-N-((S)-1-(4-fluorophenyl)ethyl)-4-hydroxypyrrolidine-2-carboxamide], in assay [1], the DC50 is greater than 100 nM and the “BRM HiBit Degradation Maximum (%)” value is listed as “A (“A” indicates maximum degradation ≥75%)”. Also, in assay [2], the DC50 was greater than 100 nM and the Dmax is greater than 50%.

`Cc1ncsc1-c1ccc([C@H](C)NC(=O)[C@@H]2C[C@@H](O)CN2C(=O)[C@@H](c2cc(N3CC4=C(CN(c5ccc6cc(-c7ccccc7O)nnc6c5)C4)C3)no2)C(C)C)cc1` [Compound 228, (2S,4R)-4-hydroxy-1-((R)-2-(3-(5-(3-(2-hydroxyphenyl)cinnolin-7-yl)-3,4,5,6-tetrahydropyrrolo[3,4-c]pyrrol-2(1H)-yl)isoxazol-5-yl)-3-methylbutanoyl)-N-((S)-1-(4-(4-methylthiazol-5-yl)phenyl)ethyl)pyrrolidine-2-carboxamide]: in assay [1], the DC50 is less than 10 nM and the “BRM HiBit Degradation Maximum (%)” value was “A (“A” indicates maximum degradation ≥75%)”. In assay [2], the DC50 is less than 10 nM and the Dmax is greater than 75%.

The record behind these values is patent publication US20260193264A1, “BENZOYPARAZINE PYRAZINES AND THEIR USES” (FOGHORN THERAPEUTICS INC., priority 2022, published 2026).
